Experimental data from US20240360177A1, “PEPTIDES WITH ANTIMICROBIAL ACTIVITIES” (priority 2021, published 2024).
In brackets after ≈: the same amount, converted by molar mass. Where two headings read alike, the source gives them in different places. Starred links: 1 amine or outer side, 2 acyl side, 3 side chain; linkers in the order of their positions; H or OH if unused. Non-standard residues stand in square brackets, D forms with d. Residues, ends and D or L forms follow the SMILES beside them. NH(CH2)9CO = O=C(CCCCCCCCCN[*:1])[*:2]; Aoc = NCCCCCCCC(=O)O; βAla = NCCC(=O)O

Assays:
[1] = system: Scedosporium spp.; details: 72 h
[2] = system: C. auris; details: 24 h
[3] = system: C. gattii; details: 72 h
[4] = system: C. glabrata; details: 24 h
[5] = system: Candida spp.
[6] = system: C. krusei; details: 24 h
[7] = system: C. dubliniensis; details: 24 h
[8] = in vitro; details: human, EC50 cytotoxicity in HepG2, intracellular ATP assay
[9] = system: C. neoformans; details: 72 h
[10] = system: Fusarium spp.; details: 48 h
[11] = system: C. albicans; details: 24 h
[12] = system: C. parapsilosis; details: 24 h
[13] = Acute toxicity in CD-1 mice; details: both sexes, mouse, in vivo
Method: Acute toxicity and subacute toxicity of ACPs were tested in CD-1 mice. In the acute toxicity study, groups of CD-1 male or female mice were administered single intravenous or intraperitoneal escalating doses (n=2-3 per dose) of the peptides dissolved in normal saline for injection or in phosphate buffered saline. The intravenous dose was administered via tail vein with a slow push over 15-20 seconds. Doses were escalated based on tolerability.

[14] = system: C. tropicalis; details: 24 h
[15] = system: Pseudomonas aeruginosa ATCC 27853; type: cell-based
[16] = system: Escherichia coli ATCC 25922; type: cell-based
[17] = system: Staphylococcus aureus ATCC 29213; type: cell-based
[18] = single IP dose, read-out: Tolerated single intraperitoneal dose
[19] = single IV dose via tail vein, read-out: Tolerated single intravenous dose

Structure (SMILES) | MIC Range Scedosporium spp. [1] [µg/mL] | MIC C. auris [2] [µg/mL] | MIC C. gattii [3] [µg/mL] | MIC C. glabrata [4] [µg/mL] | MIC50 Candida species [5] [µg/mL] | MIC90 Candida species [5] [µg/mL] | MIC C. krusei [6] [µg/mL] | MIC C. dubliniensis [7] [µg/mL] | EC50 [8] [µg/mL] | MIC C. neoformans [9] [µg/mL] | MIC Range Fusarium spp. [10] [µg/mL] | MIC C. albicans [11] [µg/mL] | MIC C. parapsilosis [12] [µg/mL] | MTD [13, 18] [mg/kg] | MTD [13, 19] [mg/kg] | MIC C. tropicalis [14] [µg/mL] | MIC Pseudomonas aeruginosa [15] [µg/mL] | MIC Escherichia coli [16] [µg/mL] | MIC Staphylococcus aureus [17] [µg/mL]
N=C(N)NCCC[C@@H](N)C(=O)N[C@H](CCCNC(=N)N)C(=O)N[C@H](CCCNC(=N)N)C(=O)NCCC(=O)N[C@H](CCCNC(=N)N)C(=O)N[C@H](CCCNC(=N)N)C(=O)N[C@H](CCCNC(=N)N)C(=O)NCCC(=O)N[C@H](CCCNC(=N)N)C(=O)N[C@H](CCCNC(=N)N)C(=O)N[C@H](CCCNC(=N)N)C(=O)N[C@H](CCCNC(=N)N)C(=O)NCCC(=O)N[C@H](CCCNC(=N)N)C(=O)N[C@H](CCCNC(=N)N)C(=O)N[C@H](CCCNC(=N)N)C(=O)N[C@H](CCCNC(=N)N)C(N)=O [SEQ ID NO: 14, rrr-(Apr)-rrr-(Apr)-rrrr-(Apr)-rrrr-NH2] (H-[dR][dR][dR][βAla][dR][dR][dR][βAla][dR][dR][dR][dR][βAla][dR][dR][dR][dR]-NH2) | 0.25 (≈ 0.103 µM) | 0.5 (≈ 0.207 µM) | 0.25 (≈ 0.103 µM) | 0.5 (≈ 0.207 µM) | 0.5 (≈ 0.207 µM) | 2 (≈ 0.828 µM) | 0.5 (≈ 0.207 µM) | 0.5 (≈ 0.207 µM) | > 300 | 0.5 (≈ 0.207 µM) | 0.12 to 0.25 | 1 (≈ 0.414 µM) | 0.12 (≈ 0.0497 µM) | 10 to 15 | 5 to 7.5 | 0.25 (≈ 0.103 µM) |  |  | 
N=C(N)NCCC[C@@H](N)C(=O)N[C@@H](CCCNC(=N)N)C(=O)N[C@H](CCCNC(=N)N)C(=O)NCCC(=O)N[C@H](CCCNC(=N)N)C(=O)N[C@@H](CCCNC(=N)N)C(=O)N[C@H](CCCNC(=N)N)C(=O)NCCC(=O)N[C@H](CCCNC(=N)N)C(=O)N[C@@H](CCCNC(=N)N)C(=O)N[C@H](CCCNC(=N)N)C(=O)N[C@@H](CCCNC(=N)N)C(=O)NCCC(=O)O [SEQ ID NO: 17, rRr-(Apr)-rRr-(Apr)-rRrR-(Apr)] (H-[dR]R[dR][βAla][dR]R[dR][βAla][dR]R[dR]R[βAla]-OH) |  | >64 | 8 (≈ 4.46 µM) | >64 |  |  | 1 (≈ 0.558 µM) | 8 (≈ 4.46 µM) | > 300 | 64 (≈ 35.7 µM) | 16 to 64 | 4 (≈ 2.23 µM) | 2 (≈ 1.12 µM) |  |  | 4 (≈ 2.23 µM) | >64 | >64 | >64
N=C(N)NCCC[C@@H](N)C(=O)N[C@@H](CCCNC(=N)N)C(=O)N[C@H](CCCNC(=N)N)C(=O)NCCCCCCCCCC(=O)N[C@H](CCCNC(=N)N)C(=O)N[C@@H](CCCNC(=N)N)C(=O)N[C@H](CCCNC(=N)N)C(=O)NCCCCCCCC(=O)N[C@H](CCCNC(=N)N)C(=O)N[C@@H](CCCNC(=N)N)C(=O)N[C@H](CCCNC(=N)N)C(=O)N[C@@H](CCCNC(=N)N)C(=O)NCCCCCCCC(=O)N[C@H](CCCNC(=N)N)C(=O)N[C@@H](CCCNC(=N)N)C(=O)N[C@H](CCCNC(=N)N)C(=O)N[C@@H](CCCNC(=N)N)C(N)=O [SEQ ID NO: 33, rRr-(Ada)-rRr-(Aoa)-rRrR-(Aoa)-rRrR-NH2] (H-[dR]R[dR][NH(CH2)9CO][dR]R[dR][Aoc][dR]R[dR]R[Aoc][dR]R[dR]R-NH2) | 0.25 (≈ 0.0941 µM) | 0.5 (≈ 0.188 µM) | 0.5 (≈ 0.188 µM) | 0.5 (≈ 0.188 µM) |  |  | 0.5 (≈ 0.188 µM) | 0.25 (≈ 0.0941 µM) | > 300 | 0.25 (≈ 0.0941 µM) | 0.25 to 0.5 | 1 (≈ 0.377 µM) | 0.5 (≈ 0.188 µM) | 10 to 15 | 5 to 7.5 | 0.5 (≈ 0.188 µM) | 32 (≈ 12.1 µM) | 16 (≈ 6.03 µM) | 16 (≈ 6.03 µM)
